# Test results: patent US20090123940A1, “MOLECULES INVOLVED IN SYNAPTOGENESIS AND USES THEREFOR” (THE JOHNS HOPKINS UNIVERSITY, priority 2007, published 2009)
# What was measured:
# [1] = tested on: Narp association with AMPA receptor subunits; assay: Co-immunoprecipitation of Narp with AMPA receptor subunits in HEK-293 cells; assay type: cell-based; conditions: 1 mM tunicamycin
# Source text: Co-immunoprecipitation experiments were used to examine whether Narp is physically associated with AMPA receptors in HEK-293 cells.
# [2] = tested on: NPR cleavage at Site A (TACE); assay: NPR cleavage assay in transfected HEK293T cells; assay type: cell-based, rat; conditions: PMA 150 nM, cells transfected with NPR
# Description: Cleavage Assay HEK293T cells were plated in OptiMEM (Invitrogen, Carlsbad, Calif.) containing 5% FBS onto 6-well dishes at a density of 4×10^5 cells/mL (2 mL/well) 1 day before transfection. Cells were transfected with NPR in pRK5 using LipofectAMINE 2000 (Invitrogen, Carlsbad Calif.). After 24 hr the medium was replaced with serum-free OptiMEM. […] Samples from each well were obtained at specific time points, immediately placed on ice, centrifuged at 15,000 g to remove cell debris, and then treated with 2% β-mercaptoethanol containing loading buffer. At the end of the time course, the cells were lysed with RIPA buffer, centrifuged to remove cell debris, and treated with 2% β-mercaptoethanol in loading buffer. Samples (20 μL of medium or lysate diluted to 1/5) were run on SDS-PAGE gels and analyzed by Western blotting.
# [3] = tested on: NPR-myc and GluR2-HA in COS-7 cells; assay: Live staining of NPR clusters in transfected COS-7 cells after PMA; assay type: cell-based
# Description: Immunocytochemical staining. Immunocytochemical staining of heterologous cells was performed as described (Xu et al., supra). For PMA-stimulation experiments, PMA (Sigma Cat #: P8139) at (150 nM) was added 90 minutes prior to live staining. Images were viewed and captured using Nikon E800 epifluorescence microscope fitted with a Princeton Instruments CCD camera. For live staining, neurons cultured on coverslips were incubated at 10° C. with the appropriate primary antibodies at the indicated dilutions in conditioned culture medium for 20 min. They were then washed with PBS and fixed with 4% paraformaldehyde/4% sucrose in PBS for 20 min at room temperature. Cells were permeablized with 0.2% Triton X-100 in PBS for 5 min and then blocked in 10% normal goat serum in PBS for 1 hr at room temperature. […] For quantification of the punctate structures (e.g. GluR1), images were thresholded by grey value to differentiate single puncta. Segments of dendrites were selected and number of puncta was calculated per […] of length dendrite. Figures show ratios of calculated mean densities (number of puncta per unit length) from treated/control. Error bars were calculated using SEM and Gaussian error propagation. n=number of measured dendrites. Significance was determined by paired Student's T-test. […]
Compound,association between Narp and AMPA receptor subunits [1],accumulation of LFC-NPR in the medium [2],"NPR distribution on COS-7 cells expressing NPR-myc ([3]; PMA 150 nM, 90 min)",clustering of NPR and GluR2 in COS-7 cells co-transfected with NPR-myc and GluR2-HA ([3]; PMA treated)
tunicamycin,no effect,,,
"CCCCCCCCCCCCCC(=O)O[C@@H]1[C@@H](C)[C@@]2(O)[C@@H](C=C(CO)C[C@]3(O)C(=O)C(C)=C[C@@H]23)[C@@H]2C(C)(C)[C@]12OC(C)=O [PMA, phorbol myristate acetate]",,increased the accumulation of LFC-NPR in the medium,large clusters of NPR were detected,exhibited co-clusters of NPR and GluR2
